Data from article PMC3207826, “Phase I Evaluation of STA-1474, a Prodrug of the Novel HSP90 Inhibitor Ganetespib, in Dogs with Spontaneous Cancer” (PLoS ONE, 2011).
Entries after “also recorded” stand apart in the source; their conditions may differ.

Key:
[1] = system: canine MCT and OSA cell lines; details: cited from earlier work; for activity compared with 17-AAG: OSA and MCT cell lines
human cancer cell lines = system: human cancer cell lines; parameters: method as in earlier work; details: in vitro; 15 and unpublished data, Synta Pharmaceuticals Corp.; cited from earlier work
MCT xenograft = details: murine MCT xenograft model; cited from earlier work
[2] = Ganetespib pharmacokinetics in plasma after STA-1474 infusion (LC-MS/MS); format: in vivo, dogs; details: for half-life / AUC(0-t) / Cmax / Tmax: iv, STA-9090 in plasma, mean, day 1
Experimental: Plasma samples were collected on day 1 and day 22 of therapy at the specified intervals: before and after dosing at 30, 60, 90, 120, 180, 300 (5 hr), 540 (9 hr), and 1440 (24 hr) minutes relative to the start of dosing. On day 8, day 15, and day 29, plasma was collected before dosing only. Approximately 1 ml of blood was drawn from an indwelling catheter, placed in a sodium heparin vacuum glass tube, and placed on ice until centrifugation. Blood samples were centrifuged at 3300 rpm for 10 minutes, within 30 minutes of collection. Plasma was transferred by pipette into two cryovials and stored at −80°C until analysis.
Plasma concentrations of ganetespib were determined using a qualified liquid chromatography tandem mass spectrometry (LC-MS/MS) method. Samples were analyzed on an HPLC system consisting of an Agilent HP1100 separation module (Santa Clara, CA) coupled to an AB SCIEX API400 MS/MS detector (Foster City, CA). Stable isotope-labeled ganetespib was used as an internal standard. Sample extraction was performed by a liquid-liquid extraction method with 25 µL plasma samples and 800 µL methyl tertiary butyl ether. The organic phase of samples was evaporated to dryness under nitrogen and reconstituted with water/acetonitrile solution for injection. Chromatographic separation was achieved on a reverse-phase analytical column (4 µm particle, 50×2.0 mm i.d.) with gradient elution of water/0.1% formic acid and acetonitrile/0.1% formic acid at a flow rate of 500 µL/min. The total run time was 4 min. Quantitation was achieved by MS/MS detection in positive ion mode by multiple reaction monitoring. The lower limit of quantitation (LLOQ) was 1.00 ng/mL, with a concentration range from 1.00 to 1000 ng/mL.
The pharmacokinetic parameters for ganetespib were determined from the plasma concentration data using the Noncompartmental Analysis module in WinNonlin, version 5.2 (Pharsight Corporation, St.Louis, MO). The predose samples that measured below the LLOQ (BQL) were treated as zero for the calculations. Maximum concentration (Cmax) and time of maximum concentration (Tmax) were directly determined from the observed concentration-time profiles. The area under the plasma concentration-time curve (AUC) was estimated by the linear trapezoidal rule. The apparent half-life (t1/2) was calculated as t1/2 = 0.693/λ where λ was the elimination rate constant estimated from the regression of the terminal slope of the concentration versus time curve.

HSP90 = assay: Evaluation of tumor biopsies for HSP90 expression (Western blot); format: in vivo, dogs; details: tumor samples, 24 hrs following treatment, 5 mg/kg over 1 hour
Experimental: Frozen tumor samples were processed as described above, then resuspended in 100–150 uL of lysis buffer consisting of 20 mM Tris-HCl pH 8.0, 137 mM NaCl, 10% glycerol, 1% IGEPAL CA-630, 10 mM ethylenediaminetetraacetic acid (EDTA), 1 mg/mL aprotinin, 1 mg/mL leupeptin, 1 mg/mL pepstatin A, 1 mM phenylmethysulphonyl fluoride, 1 mM sodium orthovanadate, 10 mM sodium fluoride (all from Sigma, St. Louis, MO). Sample were rocked at 4°C for 1 hour, and then centrifuged for 15 minutes at 13,000 RCF. A Bradford protein assay was performed on the lysates using BioRad Reagent (Hercules, CA). 60–100 µg of protein were separated by SDS-page, and transferred to PVDF membranes. The membranes were incubated overnight with anti-HSP90 antibodies (Cell Signaling Technology, Danvers, MA), washed, then incubated with horseradish peroxidase linked secondary antibody. Membranes were washed again, then exposed to Super Signal West Dura Extended Duration Substrate (Pierce, Rockford, IL) Membranes were stripped, washed, and reprobed for β-Actin (Santa Cruz Biotechnology, Santa Cruz, CA) using the SNAP i.d. apparatus (Millipore, Billerica, MA) according to manufacture's instructions.

HSP70 = assay: Evaluation of HSP70 expression in tumor biopsies and PBMCs (ELISA, Western blot); format: in vivo, dogs
[3] = Toxicity assessment (VCOG-CTCAE grades) in Phase I trial; format: in vivo, dogs
Experimental: This study was a Phase I dose escalating, open label assessment of the safety and pharmacokinetics of STA-1474 in client owned dogs with spontaneous malignancies. Dogs were administered STA-1474 on one of three dosing regimens and were evaluated weekly or twice per week dependent on the regimen used. Assessment of clinical toxicities and tumor response was performed at each visit. Dogs were evaluated for hematologic and biochemical toxicities every 7 days with routine bloodwork. The initial dose of STA-1474 was set at 7 mg/kg based on previous data from normal laboratory dogs (data not shown) and dose escalation was set at 2.5 mg/kg increments in cohorts of 3 until dose limiting toxicity (DLT) was identified. The DLT was considered to be any grade 3 or 4 hematologic or non-hematologic toxicity based on the established VCOG-CTAE criteria. […] Disease progression or signs and symptoms definitely related to disease were not considered adverse events (AEs).
Each patient underwent a baseline complete history, physical examination, and predose laboratory assessment that included a complete blood count (CBC), serum biochemistry profile, and urinalysis. Patients were assessed for adverse events on days 8, 15, 22, and 29, at which time a complete blood count with differential and clinical chemistry were performed. Urinalysis was performed at baseline and repeated only if indicated. Stipulations regarding minimal hematological requirements to continue dosing were included in the protocol: hematocrit >25%, neutrophils >[…], platelets >[…]. In addition, liver transaminases were required to be <4X upper limit of normal with a normal total bilirubin and serum creatinine to continue STA-1474 therapy.

spontaneous tumors = assay: Tumor response assessment (RECIST); format: in vivo, dogs
Experimental: Tumor assessments were completed prior to study entry, and days 8, 15, 22, and 29. For dogs that continued beyond the planned 4 doses of STA-1474, response assessments were performed every 3–6 weeks thereafter, or at the time of suspected tumor progression. Responses were assessed by the investigator according to pre-defined protocol criteria. The response in dogs with assessable disease was performed by clinical examination, radiography, ultrasonography, or CT scans. Many lesions were not amenable for quantitative radiographic imaging, but were followed either by serial clinical examination (superficial lesions; palpable lymph nodes) or by ultrasonography (abdominal lymph nodes). Thoracic lesions were assessed by thoracic radiography and nasal lesions by CT scan.
The response in dogs with measurable disease was judged by the investigator on the basis of RECIST criteria. A complete response (CR) was defined as disappearance of all disease on two measurements separated by a minimum period of 3 weeks. A partial response (PR) was defined as greater than 30% reduction in the sum of the longest diameter of the target lesions documented by two assessments separated by at least 3 weeks. An increase of >20% in the size of all measurable tumor areas as measured by the sum of longest diameters of the target lesions taken as reference the smallest sum since initiation of therapy, or the appearance of any new lesion(s) would qualify as progressive disease (PD). A mixed response (MR) was defined as PR in some target lesions with PD in other target lesions. Stable disease (SD) was defined by the absence of criteria for either a response or progression. Dogs who had no evidence of tumor progression and who had not experienced any unacceptable toxicity were eligible for extended treatment cycles. Dose escalation in an individual dog was permitted if the dog was tolerating therapy.

OSA xenografts = details: cited from earlier work
[4] = dog, plasma, 5 mg/kg, STA-1474 5 mg/kg, 1 h infusion, twice weekly
[5] = dog, plasma, 9.5 mg/kg, STA-1474 9.5 mg/kg, 1 h infusion, once weekly
[6] = dog, plasma, 9.5 mg/kg, STA-1474 9.5 mg/kg, 8 h infusion, once weekly
[7] = 1 hr/2x week, 5.0 mg/kg, 7 dogs

Structure (SMILES): CC(C)c1cc(-c2n[nH]c(=O)n2-c2ccc3c(ccn3C)c2)c(O)cc1O [ganetespib]
- activity compared with 17-AAG [1]: superior activity
- concentrations for biologic effects, lower than those for 17-AAG ([1]; canine MCT and OSA cell lines): at least 1 log
- concentrations killing cancer cell lines (human cancer cell lines): low nanomolar concentrations
- tumor growth (MCT xenograft): inhibited tumor growth
- sustained blood levels ([2]; dog with oral melanoma, extravasation (mostly subcutaneous) of STA-1474, first dosing cohort): 200 to 600 ng/mL
- duration of sustained blood levels ([2]; dog with oral melanoma, extravasation of STA-1474, levels between 200–600 ng/ml): 8 to 10 h
- half-life ([2]; dog, STA-1474 5 mg/kg, 1 h infusion, twice weekly): 366 min
- half-life ([2]; dog, STA-1474 9.5 mg/kg, 1 h infusion, once weekly): 336 min
- AUC ([2]; dog, plasma, intravenous, range over the three dosing regimens of STA-1474): 5010 to 5700 ng·h/mL
- AUC(0-t) [2, 4]: 5010 ng·h/mL
- Cmax [2, 4]: 3420 ng/mL
- Tmax [2, 4]: 1.1 h
- AUC(0-t) [2, 5]: 5700 ng·h/mL
- Cmax [2, 5]: 3980 ng/mL
- Tmax [2, 5]: 0.7 h
- AUC(0-t) [2, 6]: 5600 ng·h/mL
- Cmax [2, 6]: 802 ng/mL
- Tmax [2, 6]: 5.7 h

Structure (SMILES): CC(C)c1cc(-c2nnc(O)n2-c2ccc3c(ccn3C)c2)c(O)cc1OP(=O)(O)O [STA-1474]
- activity compared with 17-AAG [1]: superior activity
- HSP90 expression levels (Western blot) (HSP90): did not appear to change substantially
- HSP70 expression (Western blot) (HSP70; PBMCs, 24 hours after 9.5 mg/kg over 8 hours): small increases in HSP70 expression
- time to upregulation of HSP70 protein expression (HSP70; tumor specimens and PBMCs, following drug administration): ≤ 7 h
- Anorexia grade 1 (count) [3, 7]: 3
- Anorexia grade 2 (count) [3, 7]: 5
- Diarrhea grade 1 (count) [3, 7]: 5
- Diarrhea grade 2 (count) [3, 7]: 1
- Diarrhea grade 3 (count) [3, 7]: 1
- Lethargy grade 1 (count) [3, 7]: 4
- Lethargy grade 2 (count) [3, 7]: 2
- Anorexia grade 2 (count) ([3]; 1 hr/week, 7.0 mg/kg, 4 dogs): 2
- Diarrhea grade 1 (count) ([3]; 1 hr/week, 7.0 mg/kg, 4 dogs): 2
- Diarrhea grade 2 (count) ([3]; 1 hr/week, 7.0 mg/kg, 4 dogs): 3
- Lethargy grade 1 (count) ([3]; 1 hr/week, 7.0 mg/kg, 4 dogs): 2
- Vomiting grade 1 (count) ([3]; 1 hr/week, 7.0 mg/kg, 4 dogs): 3
- Diarrhea grade 1 (count) ([3]; 1 hr/week, 9.5 mg/kg, 5 dogs): 1
- Diarrhea grade 3 (count) ([3]; 1 hr/week, 9.5 mg/kg, 5 dogs): 1
- Lethargy grade 2 (count) ([3]; 1 hr/week, 9.5 mg/kg, 5 dogs): 1
- Lethargy grade 3 (count) ([3]; 1 hr/week, 9.5 mg/kg, 5 dogs): 1
- Vomiting grade 2 (count) ([3]; 1 hr/week, 9.5 mg/kg, 5 dogs): 2
- Anorexia grade 2 (count) ([3]; 1 hr/week, 10.25 mg/kg, 3 dogs): 3
- Diarrhea grade 2 (count) ([3]; 1 hr/week, 10.25 mg/kg, 3 dogs): 3
- Lethargy grade 2 (count) ([3]; 1 hr/week, 10.25 mg/kg, 3 dogs): 3
- Vomiting grade 2 (count) ([3]; 1 hr/week, 10.25 mg/kg, 3 dogs): 1
- Anorexia grade 1 (count) ([3]; 8 hr/week, 9.5 mg/kg, 6 dogs): 5
- Anorexia grade 2 (count) ([3]; 8 hr/week, 9.5 mg/kg, 6 dogs): 4
- Diarrhea grade 1 (count) ([3]; 8 hr/week, 9.5 mg/kg, 6 dogs): 4
- Diarrhea grade 2 (count) ([3]; 8 hr/week, 9.5 mg/kg, 6 dogs): 4
- Lethargy grade 1 (count) ([3]; 8 hr/week, 9.5 mg/kg, 6 dogs): 2
- Vomiting grade 2 (count) ([3]; 8 hr/week, 9.5 mg/kg, 6 dogs): 3
- maximum tolerated weekly dose ([3]; administered weekly over 1 or 8 hours, intravenous): 9.5 mg/kg
- hematologic or biochemical toxicities ([3]; any doses or regimens): No drug-related hematologic or biochemical toxicities; also recorded: no evidence of hematologic toxicity
- dogs with partial responses (spontaneous tumors; 5 mg/kg over one hour twice per week, 7 dogs, both MCTs): 2
- objective responses (spontaneous tumors; 1 hr once per week dosing regimen, n = 12, exception one dog with oral malignant melanoma after extravasation): no objective responses
- biologic activity rate (spontaneous tumors; 8 hour infusion group, 9.5 mg/kg once weekly, 2PR, 1 MR, 2 SD of 6): 83%
- response rate (measurable objective responses) (spontaneous tumors; all dogs, 6/25): 24%
- overall biological activity (objective responses plus stable disease >10 weeks) (spontaneous tumors; all dogs, 9/25): 36%
- duration of mixed response (spontaneous tumors; metastatic MCT, 8 hour infusion 9.5 mg/kg): 16 weeks
- duration of partial response (spontaneous tumors; metastatic OSA, 8 hour infusion 9.5 mg/kg): 20 weeks
- duration of partial response (spontaneous tumors; metastatic thyroid carcinoma, 8 hour infusion 9.5 mg/kg): 36 weeks
- duration of stable disease (spontaneous tumors; metastatic thyroid carcinoma, switched from 1 hr to 8 hr infusion): 40 weeks
- duration of continued partial response (spontaneous tumors; oral malignant melanoma with extravasation event, on 8 hour infusion protocol): 12 weeks
- duration of stable disease (spontaneous tumors; two dogs, both metastatic OSA, 8 hour infusion 9.5 mg/kg): 12 weeks
- tumor effect (OSA xenografts): induced tumor regression
